According to patent publication US7608604B2, “Antiparasitic agents” (Pfizer Limited, priority 2007, dated 2009):

system: Haemonchus contortus L3; assay: Haemonchus contortus L3 (HcL3) in vitro test; assay type: cell-based; details: minimum effective dose; exsheathed L3 larvae in vitro, 37° C., observed up to 4 days, n=2
Method: The Haemonchus contortus L3 (HcL3) test is used to measure the biological activities of the compounds claimed. The assay involves in vitro testing against H. contortus conducted according to the following general procedure.
HcL3 larvae were collected from infected sheep and, after cleaning, stored in water at 12° C. for up to one month. Viable infective larvae were exsheathed using 10% hypochlorite in Glucose Tyrodes balanced salt solution containing antibiotics and resuspended in basal medium (20 g/l bacto-tryptone, 5 g/l yeast extract, 57 g/l glucose, 0.8 g/l di-Potassium hydrogen orthophosphate, 0.8 g/l potassium dihydrogen orthophosphate and […] Hepes with antibiotics). 95 μl worm suspension was added to each well of a 96 well plate.
Test compounds were dissolved in dimethylsulfoxide to give a working stock solution of 20 mg/ml. The stock concentration was diluted 1:10 in Basal media to give 2.0 mg/ml (10% DMSO). 5 μl of the stock compound solution was added to the worm suspension to give a final concentration of 100 μg/ml. Plates were sealed with pressure sensitive film and incubated at 37° C. Observations were made 2 hrs, 24 hrs, 48 hrs, 72 hrs and 4 days post-treatment using an inverted microscope. Activity was recorded if a significant proportion of the worms were dead or adversely affected by the compound when compared to the control well containing 1% DMSO. Compounds were initially tested at 100 μg/ml, wherefrom relevant dose responses (100, 30, 10, 3, 1, 0.3, 0.1 μg/ml) were conducted in duplicate experiments to generate n=2. Data was recorded as minimum effective dose.

Molecule	in vitro H.c. (L3) MED
CC(C#N)(COc1cc(C#N)ccc1Cl)NC(=O)c1ccc(S(F)(F)(F)(F)F)cc1 (racemic) [Example 2, N-[2-(2-Chloro-5-cyanophenoxy)-1-cyano-1-methylethyl]-4-(pentafluorothio)benzamide]	1 µg/mL
C[C@](C#N)(COc1cc(C#N)ccc1C(F)(F)F)NC(=O)c1ccc(S(F)(F)(F)(F)F)cc1 (single isomer, unassigned) [Example 1c, N-{1-cyano-2-[5-cyano-2-(trifluoromethyl)phenoxy]-1-methylethyl}-4-(pentafluorothio)benzamide]	> 30 µg/mL
CC(C#N)(COc1ccc(C#N)cc1C(F)(F)F)NC(=O)c1ccc(S(F)(F)(F)(F)F)cc1 (single isomer, unassigned) [Example 3b, N-{1-Cyano-2-[4-cyano-2-(trifluoromethyl)Phenoxy]-1-methylethyl}-4-(pentafluorothio)benzamide]	1 µg/mL
CC(C#N)(COc1c(F)cc(C#N)cc1C(F)(F)F)NC(=O)c1ccc(S(F)(F)(F)(F)F)cc1 (racemic) [Example 4, N-{1-Cyano-2-[4-cyano-2-fluoro-6-(trifluoromethyl)phenoxy]-1-methylethyl}-4-(pentafluorothio)benzamide]	3 µg/mL
CC(C#N)(COc1cc(C#N)ccc1C(F)(F)F)NC(=O)c1ccc(S(F)(F)(F)(F)F)cc1 (stereo not shown) [Example 1b, N-{1-cyano-2-[5-cyano-2-(trifluoromethyl)phenoxy]-1-methylethyl}-4-(pentafluorothio)benzamide]	1 µg/mL

same assay, conditions: minimum effective dose; table of Examples 5-11

Molecule	H.c. (L3) MED
CC(C#N)(COc1c(F)cc(F)cc1C#N)NC(=O)c1ccc(S(F)(F)(F)(F)F)cc1 (stereo not shown) [Example 8, N-[1-Cyano-2-(2-cyano-4,6-difluorophenoxy)-1-methylethyl]-4-(pentafluorothio)benzamide]	30 µg/mL
CC(C#N)(COc1ccc(C#N)c(Cl)c1)NC(=O)c1ccc(S(F)(F)(F)(F)F)cc1 (stereo not shown) [Example 6, N-[2-(3-Chloro-4-cyanophenoxy)-1-cyano-1-methylethyl]-4-(pentafluorothio)benzamide]	3 µg/mL
CC(C#N)(COc1ccc(Br)cc1C(F)(F)F)NC(=O)c1ccc(S(F)(F)(F)(F)F)cc1 (stereo not shown) [Example 10, N-{2-[4-Bromo-2-(trifluoromethyl)phenoxy]-1-cyano-1-methylethyl}-4-(pentafluorothio)benzamide]	10 µg/mL
CC(C#N)(COc1cc(C#N)cc(C(F)(F)F)c1)NC(=O)c1ccc(S(F)(F)(F)(F)F)cc1 (stereo not shown) [Example 7, N-{1-cyano-2-[3-cyano-5-(trifluoromethyl)phenoxy]-1-methylethyl}-4-(pentafluorothio)benzamide]	30 µg/mL

same assay, conditions: minimum effective dose; table of Examples 13a-42; 13a/b, 27a/b, 29a/b, 33a/b tested as mixtures of regioisomers

Molecule	H.c. (L3) MED
CC(C#N)(COc1cccc(C#N)c1C(F)(F)F)NC(=O)c1ccc(S(F)(F)(F)(F)F)cc1 (stereo not shown) [Example 36, N-{1-Cyano-2-[3-cyano-2-(trifluoromethyl)phenoxy]-1-methylethyl}-4-(pentafluorothio)benzamide]	10 µg/mL
CC(C#N)(COc1ccc(F)cc1Br)NC(=O)c1ccc(S(F)(F)(F)(F)F)cc1 (stereo not shown) [Example 33a, N-[2-(2-Bromo-4-fluorophenoxy)-1-cyano-1-methylethyl]-4-(pentafluorothio)benzamide]	10 µg/mL
CC(C#N)(COc1ccccc1Cl)NC(=O)c1ccc(S(F)(F)(F)(F)F)cc1 (stereo not shown) [Example 25, N-[2-(2-Chlorophenoxy)-1-cyano-1-methylethyl]-4-(pentafluorothio)benzamide]	10 µg/mL
CC(C#N)(COc1ccc(Cl)cc1F)NC(=O)c1ccc(S(F)(F)(F)(F)F)cc1 (stereo not shown) [Example 28, N-[2-(4-Chloro-2-fluorophenoxy)-1-cyano-1-methylethyl]-4-(pentafluorothio)benzamide]	3 µg/mL
CC(C#N)(COc1cccc(Br)c1C#N)NC(=O)c1ccc(S(F)(F)(F)(F)F)cc1 (stereo not shown) [Example 40, N-[2-(3-Bromo-2-cyanophenoxy)-1-cyano-1-methylethyl]-4-(pentafluorothio)benzamide]	10 µg/mL
CC(C#N)(COc1cc(Br)ccc1C#N)NC(=O)c1ccc(S(F)(F)(F)(F)F)cc1 (stereo not shown) [Example 16, N-[2-(5-Bromo-2-cyanophenoxy)-1-cyano-1-methylethyl]-4-(pentafluorothio)benzamide]	10 µg/mL
N-[2-(3-Chloro-4-fluorophenoxy)-1-cyano-1-methylethyl]-4-(pentafluorothio)benzamide [Example 13b]	1 µg/mL
CC(C#N)(COc1ccc(C(F)(F)F)cc1F)NC(=O)c1ccc(S(F)(F)(F)(F)F)cc1 (stereo not shown) [Example 30, N-{1-Cyano-2-[2-fluoro-4-(trifluoromethyl)phenoxy]-1-methylethyl}-4-(pentafluorothio)benzamide]	10 µg/mL
CC(C#N)(COc1ccc(Br)cc1F)NC(=O)c1ccc(S(F)(F)(F)(F)F)cc1 (stereo not shown) [Example 34, N-[2-(4-Bromo-2-fluorophenoxy)-1-cyano-1-methylethyl]-4-(pentafluorothio)benzamide]	10 µg/mL
CC(C#N)(COc1cccc(Cl)c1C#N)NC(=O)c1ccc(S(F)(F)(F)(F)F)cc1 (stereo not shown) [Example 26, N-[2-(3-Chloro-2-cyanophenoxy)-1-cyano-1-methylethyl]-4-(pentafluorothio)benzamide]	10 µg/mL
CC(C#N)(COc1ccc(Cl)cc1C#N)NC(=O)c1ccc(S(F)(F)(F)(F)F)cc1 (stereo not shown) [Example 17, N-[2-(4-Chloro-2-cyanophenoxy)-1-cyano-1-methylethyl]-4-(pentafluorothio)benzamide]	3 µg/mL
CC(C#N)(COc1cccc(Cl)c1Cl)NC(=O)c1ccc(S(F)(F)(F)(F)F)cc1 (stereo not shown) [Example 42, N-[1-Cyano-2-(2,3-dichlorophenoxy)-1-methylethyl]-4-(pentafluorothio)benzamide]	30 µg/mL
CC(C#N)(COc1ccc(F)c(Br)c1)NC(=O)c1ccc(S(F)(F)(F)(F)F)cc1 (stereo not shown) [Example 33b, N-[2-(3-Bromo-4-fluorophenoxy)-1-cyano-1-methylethyl]-4-(pentafluorothio)benzamide]	10 µg/mL
CC(C#N)(COc1ccc(Br)cc1C#N)NC(=O)c1ccc(S(F)(F)(F)(F)F)cc1 (stereo not shown) [Example 41, N-[2-(4-Bromo-2-cyanophenoxy)-1-cyano-1-methylethyl]-4-(pentafluorothio)benzamide]	10 µg/mL
CC(C#N)(COc1cccc(F)c1Cl)NC(=O)c1ccc(S(F)(F)(F)(F)F)cc1 (stereo not shown) [Example 39, N-[2-(2-Chloro-3-fluorophenoxy)-1-cyano-1-methylethyl]-4-(pentafluorothio)benzamide]	30 µg/mL
CC(C#N)(COc1ccccc1C#N)NC(=O)c1ccc(S(F)(F)(F)(F)F)cc1 (stereo not shown) [Example 19, N-[1-Cyano-2-(2-cyanophenoxy)-1-methylethyl]-4-(pentafluorothio)benzamide]	10 µg/mL
CC(C#N)(COc1ccc(F)cc1C#N)NC(=O)c1ccc(S(F)(F)(F)(F)F)cc1 (stereo not shown) [Example 27a, N-[1-Cyano-2-(2-cyano-4-fluorophenoxy)-1-methylethyl]-4-(pentafluorothio)benzamide]	3 µg/mL

same assay, conditions: minimum effective dose; table of Examples 45-49

Molecule	H.c. (L3) MED
CC(C#N)(COc1cc(C#N)ccc1C#N)NC(=O)c1ccc(S(F)(F)(F)(F)F)cc1 (stereo not shown) [Example 46, N-[1-Cyano-2-(2,5-dicyanophenoxy)-1-methylethyl]-4-(pentafluorothio)benzamide]	10 µg/mL
CC(C#N)(COc1ccc(C#N)cc1C#N)NC(=O)c1ccc(S(F)(F)(F)(F)F)cc1 (stereo not shown) [Example 47, N-[1-Cyano-2-(2,4-dicyanophenoxy)-1-methylethyl]-4-(pentafluorothio)benzamide]	10 µg/mL

same assay, conditions: minimum effective dose; table of Examples 51-52

Molecule	H.c. (L3) MED
CC(C#N)(COc1cccc(Cl)c1C(F)(F)F)NC(=O)c1ccc(S(F)(F)(F)(F)F)cc1 (stereo not shown) [Example 52, N-{2-[3-Chloro-2-(trifluoromethyl)phenoxy]-1-cyano-1-methylethyl}-4-(pentafluorothio)benzamide]	10 µg/mL

same assay, conditions: minimum effective dose; unit not given

Molecule	in vitro H.c. (L3) MED
CC(C#N)(COc1ccc(Cl)cc1Cl)NC(=O)c1ccc(S(F)(F)(F)(F)F)cc1 (stereo not shown) [Example 12, N-[1-Cyano-2-(2,4-dichlorophenoxy)-1-methylethyl]-4-(pentafluorothio)benzamide]	3
CC(C#N)(COc1cc(C#N)cc(C(F)(F)F)c1Cl)NC(=O)c1ccc(S(F)(F)(F)(F)F)cc1 (racemic) [Example 44, N-{2-[2-Chloro-5-cyano-3-(trifluoromethyl)phenoxy]-1-cyano-1-methylethyl}-4-(pentafluorothio)benzamide]	10
